Laboratory results from US6737383B1, “Herbicidal oxadiazolidines” (priority 1999, dated 2004).

Assays:
bedstraw = experiment: Test B pre/postemergence bedstraw; format: in vivo, Galium aparine; settings: Postemergence
Method in brief: (§1)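 Herbicidal effect was estimated by eye on a ten-point control scale after plants spent twelve to sixteen days in a greenhouse following soil or foliar treatment. Foliar sprays targeted plants at one to four leaves; all doses were formulated in a non-phytotoxic solvent with surfactant.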

blackgrass = experiment: Test B pre/postemergence blackgrass; format: in vivo, Alopecurus myosuroides
Method in brief: as §1

surinam grass = experiment: Test B pre/postemergence surinam grass; format: in vivo, Brachiaria decumbens
Method in brief: as §1

corn = experiment: Test B pre/postemergence corn; format: in vivo, Zea mays
Method in brief: as §1

crabgrass = experiment: Test B pre/postemergence crabgrass; format: in vivo, Digitaria sanguinalis
Method in brief: as §1

giant foxtail = experiment: Test B pre/postemergence giant foxtail; format: in vivo, Setaria faberii
Method in brief: as §1

morningglory = experiment: Test B pre/postemergence morningglory; format: in vivo, Ipomoea hederacea
Method in brief: as §1

pigweed = experiment: Test B pre/postemergence pigweed; format: in vivo, Amaranthus retroflexus
Method in brief: as §1

soybean = experiment: Test B pre/postemergence soybean; format: in vivo, Glycine max
Method in brief: as §1

velvetleaf = experiment: Test B pre/postemergence velvetleaf; format: in vivo, Abutilon theophrasti
Method in brief: as §1

wheat = experiment: Test B pre/postemergence wheat; format: in vivo, Triticum aestivum
Method in brief: as §1

wild oat = experiment: Test B pre/postemergence wild oat; format: in vivo, Avena fatua
Method in brief: as §1

purple nutsedge = experiment: Test B pre/postemergence purple nutsedge; format: in vivo, Cyperus rotundus
Method in brief: as §1

rice = experiment: Test B flood test rice; format: in vivo, Oryza sativa
Method in brief: (§2)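 Plants were grown to the 2-leaf stage before treatment with test chemical, then held in a greenhouse for twelve to sixteen days. Injury was visually rated against untreated controls on a 0–10 scale, where 0 is no effect and 10 is complete control.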

smallflower flatsedge = experiment: Test B flood test smallflower flatsedge; format: in vivo, Cyperus difformis
Method in brief: as §2

duck salad = experiment: Test B flood test duck salad; format: in vivo, Heteranthera limosa
Method in brief: as §2

[1] = Postemergence, Rate 62 g/ha, scale 0 to 10, 0 is no effect, 10 is complete control
[2] = Postemergence, Rate 125 g/ha, scale of 0 to 10 where 0 is no effect and 10 is complete control
[3] = Postemergence, Rate 250 g/ha, scale of 0 to 10, 0 is no effect, 10 is complete control
[4] = Preemergence, Rate 62 g/ha, scale of 0 to 10 where 0 is no effect and 10 is complete control
[5] = Preemergence, Rate 125 g/ha, scale of 0 to 10 where 0 is no effect and 10 is complete control
[6] = Preemergence, Rate 250 g/ha, scale 0 to 10 (0 no effect, 10 complete control)
[7] = Preemergence, Rate 500 g/ha, scale of 0 to 10 where 0 is no effect and 10 is complete control
[8] = Rate 500 g/ha, Postemergence, scale 0 to 10, 0 is no effect, 10 is complete control
[9] = Rate 62 g/ha, flood test species, Pre-emergence, visual evaluation after twelve to sixteen days
[10] = Rate 125 g/ha, under heading Pre-emergence, flood test species, visual evaluation after twelve to sixteen days
[11] = Rate 250 g/ha, Pre-emergence (flood test species), scale 0 to 10, 0 is no effect, 10 is complete control
[12] = Rate 500 g/ha, Pre-emergence section of Table B, 0 to 10 scale (0 no effect, 10 complete control)

CC(C)N(C(=O)n1oc(=O)n(CC2CCCCO2)c1=O)c1ccccc1 (stereo not shown) [Compound 659]
Plant response rating, Bedstraw (bedstraw; Rate 62 g/ha, scale 0 to 10, 0 is no effect, 10 is complete control): 0 | Bedstraw plant response rating (bedstraw; Rate 125 g/ha, scale of 0 to 10 where 0 is no effect and 10 is complete control): 0 | Plant response rating, Blackgrass (blackgrass; [1]): 1 | Blackgrass plant response rating (blackgrass; [2]): 6 | Blackgrass plant response rating (blackgrass; [3]): 7 | Blackgrass plant response rating (blackgrass; [4]): 3 | Blackgrass plant response rating (blackgrass; [5]): 6 | Plant response rating, Blackgrass (blackgrass; [6]): 7 | Plant response rating, Blackgrass (blackgrass; [7]): 9 | Blackgrass plant response rating (blackgrass; [8]): 7 | Plant response rating, B. signalgrass (surinam grass; [1]): 0 | Plant response rating, B. signalgrass (surinam grass; [2]): 5 | B. signalgrass plant response rating (surinam grass; [3]): 5 | B. signalgrass plant response rating (surinam grass; [4]): 2 | B. signalgrass plant response rating (surinam grass; [5]): 4 | Plant response rating, B. signalgrass (surinam grass; [6]): 4 | Plant response rating, B. signalgrass (surinam grass; [7]): 8 | B. signalgrass plant response rating (surinam grass; [8]): 8 | Plant response rating, Corn (corn; [1]): 0 | Corn plant response rating (corn; [2]): 0 | Corn plant response rating (corn; [3]): 4 | Corn plant response rating (corn; [4]): 0 | Corn plant response rating (corn; [5]): 0 | Plant response rating, Corn (corn; [6]): 7 | Plant response rating, Corn (corn; [7]): 9 | Corn plant response rating (corn; [8]): 6 | Plant response rating, Crabgrass (crabgrass; [1]): 1 | Crabgrass plant response rating (crabgrass; [2]): 6 | Crabgrass plant response rating (crabgrass; [3]): 6 | Crabgrass plant response rating (crabgrass; [4]): 8 | Crabgrass plant response rating (crabgrass; [5]): 8 | Plant response rating, Crabgrass (crabgrass; [7]): 10 | Crabgrass plant response rating (crabgrass; [8]): 8 | Plant response rating, Giant foxtail (giant foxtail; [1]): 5 | Giant foxtail plant response rating (giant foxtail; [2]): 7 | Giant foxtail plant response rating (giant foxtail; [3]): 8 | Giant foxtail plant response rating (giant foxtail; [4]): 9 | Giant foxtail plant response rating (giant foxtail; [5]): 9 | Plant response rating, Giant foxtail (giant foxtail; [6]): 9 | Plant response rating, Giant foxtail (giant foxtail; [7]): 10 | Giant foxtail plant response rating (giant foxtail; [8]): 8 | Plant response rating, Morningglory (morningglory; [1]): 4 | Morningglory plant response rating (morningglory; [2]): 10 | Morningglory plant response rating (morningglory; [3]): 10 | Morningglory plant response rating (morningglory; [4]): 0 | Morningglory plant response rating (morningglory; [5]): 0 | Plant response rating, Morningglory (morningglory; [6]): 0 | Plant response rating, Morningglory (morningglory; [7]): 6 | Morningglory plant response rating (morningglory; [8]): 10 | Plant response rating, Redroot pigweed (pigweed; [1]): 0 | Redroot pigweed plant response rating (pigweed; [2]): 0 | Redroot pigweed plant response rating (pigweed; [4]): 6 | Redroot pigweed plant response rating (pigweed; [5]): 6 | Plant response rating, Redroot pigweed (pigweed; [6]): 9 | Plant response rating, Redroot pigweed (pigweed; [7]): 10 | Redroot pigweed plant response rating (pigweed; [8]): 7 | Plant response rating, Soybean (soybean; [1]): 2 | Soybean plant response rating (soybean; [2]): 3 | Soybean plant response rating (soybean; [4]): 0 | Soybean plant response rating (soybean; [5]): 0 | Plant response rating, Soybean (soybean; [6]): 0 | Plant response rating, Soybean (soybean; [7]): 2 | Soybean plant response rating (soybean; [8]): 7 | Plant response rating, Velvetleaf (velvetleaf; [1]): 0 | Velvetleaf plant response rating (velvetleaf; [2]): 3 | Velvetleaf plant response rating (velvetleaf; [4]): 0 | Velvetleaf plant response rating (velvetleaf; [5]): 0 | Plant response rating, Velvetleaf (velvetleaf; [6]): 6 | Plant response rating, Velvetleaf (velvetleaf; [7]): 7 | Velvetleaf plant response rating (velvetleaf; [8]): 6 | Plant response rating, Wheat (wheat; [1]): 0 | Wheat plant response rating (wheat; [2]): 0 | Wheat plant response rating (wheat; [4]): 0 | Wheat plant response rating (wheat; [5]): 0 | Plant response rating, Wheat (wheat; [6]): 2 | Plant response rating, Wheat (wheat; [7]): 7 | Wheat plant response rating (wheat; [8]): 5 | Plant response rating, Wild oats (wild oat; [1]): 0 | Wild oats plant response rating (wild oat; [2]): 0 | Wild oats plant response rating (wild oat; [4]): 0 | Wild oats plant response rating (wild oat; [5]): 0 | Plant response rating, Wild oats (wild oat; [6]): 3 | Plant response rating, Wild oats (wild oat; [7]): 9 | Wild oats plant response rating (wild oat; [8]): 3 | Plant response rating, Nutsedge (purple nutsedge; [1]): 0 | Nutsedge plant response rating (purple nutsedge; [2]): 0 | Nutsedge plant response rating (purple nutsedge; [4]): 0 | Nutsedge plant response rating (purple nutsedge; [5]): 0 | Plant response rating, Nutsedge (purple nutsedge; [6]): 0 | Plant response rating, Nutsedge (purple nutsedge; [7]): 0 | Nutsedge plant response rating (purple nutsedge; [8]): 0 | Plant response rating, Rice (0 to 10 scale, 0 is no effect, 10 is complete control) (rice; [9]): 0 | Rice plant response rating (0 to 10 scale, 0 is no effect, 10 is complete control) (rice; [10]): 0 | Rice plant response rating (rice; [11]): 0 | Rice plant response rating (rice; [12]): 0 | Plant response rating, S. Flatsedge (0 to 10 scale, 0 is no effect, 10 is complete control) (smallflower flatsedge; [9]): 0 | S. Flatsedge plant response rating (0 to 10 scale, 0 is no effect, 10 is complete control) (smallflower flatsedge; [10]): 0 | S. Flatsedge plant response rating (smallflower flatsedge; [11]): 0 | S. Flatsedge plant response rating (smallflower flatsedge; [12]): 5 | Plant response rating, Ducksalad (0 to 10 scale, 0 is no effect, 10 is complete control) (duck salad; [9]): 0 | Ducksalad plant response rating (0 to 10 scale, 0 is no effect, 10 is complete control) (duck salad; [10]): 0 | Ducksalad plant response rating (duck salad; [11]): 0 | Ducksalad plant response rating (duck salad; [12]): 0
